# Source: US20260272934A1 (The United States of America, as represented by the …, priority 2023, published 2026)
# Experiments:
# [1] = molecular target: T1, full-length Plk1 / biotinylated PBIP1 phospho-T78 peptide interaction (Homo sapiens, UniProt P53350); test: ELISA-based PBD1-binding inhibition assay; conditions: at least three independent experiments; read-out: ELISA (IC50) Mean ± SEM
# T1 construct: HA; EGFP; expressed in transfected cells; host or cells: HEK293A cells infected with adenovirus; total lysates
# T1 sequence (P53350 whole entry): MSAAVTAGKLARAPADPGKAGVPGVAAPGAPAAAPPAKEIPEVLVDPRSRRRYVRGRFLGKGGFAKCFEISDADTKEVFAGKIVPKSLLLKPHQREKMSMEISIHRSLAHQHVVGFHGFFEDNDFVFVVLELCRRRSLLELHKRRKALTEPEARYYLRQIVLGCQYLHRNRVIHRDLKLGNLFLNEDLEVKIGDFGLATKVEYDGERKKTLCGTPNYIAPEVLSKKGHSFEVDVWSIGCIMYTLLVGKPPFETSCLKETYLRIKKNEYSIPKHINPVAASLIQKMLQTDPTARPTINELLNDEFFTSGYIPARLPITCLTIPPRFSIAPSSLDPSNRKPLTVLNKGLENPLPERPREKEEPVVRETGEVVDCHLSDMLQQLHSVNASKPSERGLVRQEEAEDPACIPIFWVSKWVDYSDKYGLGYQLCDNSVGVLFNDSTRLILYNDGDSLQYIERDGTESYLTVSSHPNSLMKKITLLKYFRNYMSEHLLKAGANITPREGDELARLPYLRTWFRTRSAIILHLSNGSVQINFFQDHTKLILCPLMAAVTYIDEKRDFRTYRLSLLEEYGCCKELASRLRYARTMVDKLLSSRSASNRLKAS
# 5-HT1A = 5-HT1A (Homo sapiens, UniProt P08908); test: Off-target primary and secondary screen; format: binding; conditions: 10 mM sample
# 5-HT1B = 5-HT1B (Homo sapiens, UniProt P28222); test: Off-target primary and secondary screen; format: binding; conditions: 10 mM sample
# 5-HT2A = 5-HT2A (Homo sapiens, UniProt P28223); test: Off-target primary and secondary screen; format: binding; conditions: for Primary screen AVE (% inhib) ± SD: 10 mM sample
# 5-HT2A, sequence (P28223 whole entry, species assumed): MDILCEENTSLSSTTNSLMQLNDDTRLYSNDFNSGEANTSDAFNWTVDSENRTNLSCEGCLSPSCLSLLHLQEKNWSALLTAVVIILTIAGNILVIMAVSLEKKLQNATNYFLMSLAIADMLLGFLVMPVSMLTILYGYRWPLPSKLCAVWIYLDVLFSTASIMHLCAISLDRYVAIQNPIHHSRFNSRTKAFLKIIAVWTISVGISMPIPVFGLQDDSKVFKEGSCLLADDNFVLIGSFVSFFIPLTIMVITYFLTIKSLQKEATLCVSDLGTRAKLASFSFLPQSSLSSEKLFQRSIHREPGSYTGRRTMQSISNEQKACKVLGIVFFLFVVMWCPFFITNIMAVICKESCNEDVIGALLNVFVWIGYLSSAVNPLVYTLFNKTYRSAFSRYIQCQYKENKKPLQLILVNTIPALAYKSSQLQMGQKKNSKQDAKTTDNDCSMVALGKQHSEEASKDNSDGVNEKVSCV
# 5-HT2B = 5-HT2B (Homo sapiens, UniProt P41595); test: Off-target primary and secondary screen; format: binding; conditions: 10 mM sample
# 5-HT2C = molecular target: T2, 5-HT2C (Homo sapiens, UniProt P28335); test: Off-target primary and secondary screen; format: binding; conditions: for Primary screen AVE (% inhib) ± SD: 10 mM sample
# T2 sequence (P28335 33-458): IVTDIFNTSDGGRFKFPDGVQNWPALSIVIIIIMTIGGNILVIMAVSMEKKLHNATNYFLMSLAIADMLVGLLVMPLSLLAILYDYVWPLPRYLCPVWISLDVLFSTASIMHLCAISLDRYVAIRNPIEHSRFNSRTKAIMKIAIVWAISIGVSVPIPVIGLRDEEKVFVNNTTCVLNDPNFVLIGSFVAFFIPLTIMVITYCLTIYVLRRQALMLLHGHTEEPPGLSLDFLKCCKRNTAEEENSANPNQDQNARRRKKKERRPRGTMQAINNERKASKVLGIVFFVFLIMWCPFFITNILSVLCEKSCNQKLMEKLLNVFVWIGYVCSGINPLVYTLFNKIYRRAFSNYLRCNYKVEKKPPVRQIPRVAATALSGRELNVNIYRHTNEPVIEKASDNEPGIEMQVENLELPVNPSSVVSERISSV
# 5-HT3 = 5-HT3 (Homo sapiens, UniProt P46098); test: Off-target primary and secondary screen; format: binding; conditions: 10 mM sample
# 5-HT5A = 5-HT5A (Homo sapiens, UniProt P47898); test: Off-target primary and secondary screen; format: binding; conditions: 10 mM sample
# 5-HT6 = 5-HT6 (Homo sapiens, UniProt P50406); test: Off-target primary and secondary screen; format: binding; conditions: 10 mM sample
# 5-HT7A = 5-HT7A (Homo sapiens, UniProt P34969); test: Off-target primary and secondary screen; format: binding; conditions: 10 mM sample
# Alpha1B = Alpha1B (Homo sapiens, UniProt P35368); test: Off-target primary and secondary screen; format: binding; conditions: 10 mM sample
# Aipha1D = Aipha1D (Homo sapiens, UniProt P25100); test: Off-target primary and secondary screen; format: binding; conditions: 10 mM sample
# Alpha2A = Alpha2A (Homo sapiens, UniProt P08913); test: Off-target primary and secondary screen; format: binding; conditions: 10 mM sample
# Alpha2B = Alpha2B (Homo sapiens, UniProt P18089); test: Off-target primary and secondary screen; format: binding; conditions: 10 mM sample
# Beta2 = Beta2 (Homo sapiens, UniProt P07550); test: Off-target primary and secondary screen; format: binding; conditions: 10 mM sample
# Beta2, sequence (P07550 whole entry): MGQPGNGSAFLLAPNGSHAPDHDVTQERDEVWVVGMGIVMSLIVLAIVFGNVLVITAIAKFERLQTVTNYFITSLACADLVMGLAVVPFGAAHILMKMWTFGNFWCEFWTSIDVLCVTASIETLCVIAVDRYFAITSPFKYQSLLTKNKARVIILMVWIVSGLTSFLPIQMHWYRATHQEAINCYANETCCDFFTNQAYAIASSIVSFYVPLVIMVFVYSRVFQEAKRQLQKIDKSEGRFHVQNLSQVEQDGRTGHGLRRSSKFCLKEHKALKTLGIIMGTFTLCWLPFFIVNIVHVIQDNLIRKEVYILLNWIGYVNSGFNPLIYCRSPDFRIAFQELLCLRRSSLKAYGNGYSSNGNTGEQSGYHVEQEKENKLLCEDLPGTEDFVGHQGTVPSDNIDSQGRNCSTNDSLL
# Beta3 = Beta3 (Homo sapiens, UniProt P13945); test: Off-target primary and secondary screen; format: binding; conditions: 10 mM sample
# D1 = D1 (Homo sapiens, UniProt P21728); test: Off-target primary and secondary screen; format: binding; conditions: 10 mM sample
# D2 = D2 (Homo sapiens, UniProt P14416); test: Off-target primary and secondary screen; format: binding; conditions: 10 mM sample
# D3 = D3 (Homo sapiens, UniProt P35462); test: Off-target primary and secondary screen; format: binding; conditions: 10 mM sample
# D4 = D4 (Homo sapiens, UniProt P21917); test: Off-target primary and secondary screen; format: binding; conditions: 10 mM sample
# D4, sequence (P21917 whole entry): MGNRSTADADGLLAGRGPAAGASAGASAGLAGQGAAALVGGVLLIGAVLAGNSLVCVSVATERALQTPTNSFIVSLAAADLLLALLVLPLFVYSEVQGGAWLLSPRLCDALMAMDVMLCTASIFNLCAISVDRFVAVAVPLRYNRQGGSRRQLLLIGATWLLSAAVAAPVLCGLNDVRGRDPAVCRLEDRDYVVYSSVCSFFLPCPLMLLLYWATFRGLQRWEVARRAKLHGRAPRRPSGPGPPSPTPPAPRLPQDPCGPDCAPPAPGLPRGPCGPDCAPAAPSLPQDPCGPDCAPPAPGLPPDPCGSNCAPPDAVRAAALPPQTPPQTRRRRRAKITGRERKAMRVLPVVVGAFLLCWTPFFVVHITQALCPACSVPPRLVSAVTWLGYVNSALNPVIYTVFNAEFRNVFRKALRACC
# DAT = DAT (Homo sapiens, UniProt Q01959); test: Off-target primary and secondary screen; format: binding; conditions: 10 mM sample
# DAT, sequence (Q01959 whole entry, species assumed): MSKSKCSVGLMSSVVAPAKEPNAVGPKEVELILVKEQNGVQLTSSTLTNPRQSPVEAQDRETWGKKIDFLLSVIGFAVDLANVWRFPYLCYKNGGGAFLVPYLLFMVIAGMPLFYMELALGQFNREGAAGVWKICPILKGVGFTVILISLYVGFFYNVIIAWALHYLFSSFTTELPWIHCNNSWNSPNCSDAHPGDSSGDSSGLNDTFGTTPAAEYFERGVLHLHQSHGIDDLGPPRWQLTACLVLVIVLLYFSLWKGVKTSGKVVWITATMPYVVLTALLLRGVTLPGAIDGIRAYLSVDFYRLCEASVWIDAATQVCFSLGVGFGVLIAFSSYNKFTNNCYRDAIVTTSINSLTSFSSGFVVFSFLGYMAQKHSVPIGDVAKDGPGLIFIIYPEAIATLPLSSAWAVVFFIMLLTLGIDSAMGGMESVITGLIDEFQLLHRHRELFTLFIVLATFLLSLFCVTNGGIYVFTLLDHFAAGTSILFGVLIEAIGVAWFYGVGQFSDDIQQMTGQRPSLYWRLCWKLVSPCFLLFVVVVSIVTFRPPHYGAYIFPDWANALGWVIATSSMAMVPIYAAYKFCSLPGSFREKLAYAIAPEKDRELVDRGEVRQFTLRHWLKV
# H2 = H2 (Homo sapiens, UniProt P25021); test: Off-target primary and secondary screen; format: binding; conditions: 10 mM sample
# H3 = H3 (Homo sapiens, UniProt Q9Y5N1); test: Off-target primary and secondary screen; format: binding; conditions: 10 mM sample
# H4 = H4 (Homo sapiens, UniProt Q9H3N8); test: Off-target primary and secondary screen; format: binding; conditions: 10 mM sample
# KOR = KOR (Homo sapiens, UniProt P41145); test: Off-target primary and secondary screen; format: binding; conditions: 10 mM sample
# M1 = M1 (Homo sapiens, UniProt P11229); test: Off-target primary and secondary screen; format: binding; conditions: 10 mM sample
# M1, sequence (P11229 whole entry): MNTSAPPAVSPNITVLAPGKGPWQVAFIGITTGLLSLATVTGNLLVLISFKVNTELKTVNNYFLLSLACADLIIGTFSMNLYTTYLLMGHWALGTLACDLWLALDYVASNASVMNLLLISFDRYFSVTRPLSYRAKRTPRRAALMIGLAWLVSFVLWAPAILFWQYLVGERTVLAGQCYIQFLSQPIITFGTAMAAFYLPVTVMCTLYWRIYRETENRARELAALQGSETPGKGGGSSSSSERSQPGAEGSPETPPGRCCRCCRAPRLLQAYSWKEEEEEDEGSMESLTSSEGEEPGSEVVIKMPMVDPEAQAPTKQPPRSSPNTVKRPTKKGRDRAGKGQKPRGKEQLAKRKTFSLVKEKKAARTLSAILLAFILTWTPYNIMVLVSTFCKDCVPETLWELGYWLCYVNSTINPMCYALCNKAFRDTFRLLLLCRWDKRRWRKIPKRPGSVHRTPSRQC
# M2 = M2 (Homo sapiens, UniProt P08172); test: Off-target primary and secondary screen; format: binding; conditions: 10 mM sample
# M2, sequence (P08172 whole entry): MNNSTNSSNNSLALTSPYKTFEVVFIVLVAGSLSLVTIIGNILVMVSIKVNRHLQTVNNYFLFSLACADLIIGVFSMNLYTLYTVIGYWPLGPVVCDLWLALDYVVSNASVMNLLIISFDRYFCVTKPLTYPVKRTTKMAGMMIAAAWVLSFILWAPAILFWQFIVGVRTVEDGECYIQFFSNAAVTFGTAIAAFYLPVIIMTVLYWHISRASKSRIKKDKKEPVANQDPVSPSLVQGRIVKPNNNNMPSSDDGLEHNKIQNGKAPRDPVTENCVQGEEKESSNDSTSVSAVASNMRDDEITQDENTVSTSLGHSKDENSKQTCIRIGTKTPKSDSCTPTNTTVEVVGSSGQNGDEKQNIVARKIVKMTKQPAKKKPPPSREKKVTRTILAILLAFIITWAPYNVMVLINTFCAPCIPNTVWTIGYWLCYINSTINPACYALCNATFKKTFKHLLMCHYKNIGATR
# M3 = M3 (Homo sapiens, UniProt P20309); test: Off-target primary and secondary screen; format: binding; conditions: 10 mM sample
# M4 = M4 (Homo sapiens, UniProt P08173); test: Off-target primary and secondary screen; format: binding; conditions: 10 mM sample
# M5 = M5 (Homo sapiens, UniProt P08912); test: Off-target primary and secondary screen; format: binding; conditions: 10 mM sample
# MOR = MOR (Homo sapiens, UniProt P35372); test: Off-target primary and secondary screen; format: binding; conditions: 10 mM sample
# MOR, sequence (P35372 whole entry): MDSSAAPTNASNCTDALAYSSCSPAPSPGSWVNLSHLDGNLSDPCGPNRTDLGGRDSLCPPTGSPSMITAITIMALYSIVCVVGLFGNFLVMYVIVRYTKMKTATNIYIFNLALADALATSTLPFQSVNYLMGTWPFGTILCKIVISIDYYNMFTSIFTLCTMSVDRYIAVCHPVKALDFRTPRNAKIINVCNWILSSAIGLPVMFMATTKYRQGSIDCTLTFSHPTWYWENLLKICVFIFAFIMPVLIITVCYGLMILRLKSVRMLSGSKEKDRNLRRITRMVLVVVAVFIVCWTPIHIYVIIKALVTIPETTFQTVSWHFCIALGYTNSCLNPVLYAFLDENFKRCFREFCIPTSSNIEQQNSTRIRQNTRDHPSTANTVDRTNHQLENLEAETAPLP
# NET = NET (Homo sapiens, UniProt P23975); test: Off-target primary and secondary screen; format: binding; conditions: 10 mM sample
# NET, sequence (P23975 whole entry): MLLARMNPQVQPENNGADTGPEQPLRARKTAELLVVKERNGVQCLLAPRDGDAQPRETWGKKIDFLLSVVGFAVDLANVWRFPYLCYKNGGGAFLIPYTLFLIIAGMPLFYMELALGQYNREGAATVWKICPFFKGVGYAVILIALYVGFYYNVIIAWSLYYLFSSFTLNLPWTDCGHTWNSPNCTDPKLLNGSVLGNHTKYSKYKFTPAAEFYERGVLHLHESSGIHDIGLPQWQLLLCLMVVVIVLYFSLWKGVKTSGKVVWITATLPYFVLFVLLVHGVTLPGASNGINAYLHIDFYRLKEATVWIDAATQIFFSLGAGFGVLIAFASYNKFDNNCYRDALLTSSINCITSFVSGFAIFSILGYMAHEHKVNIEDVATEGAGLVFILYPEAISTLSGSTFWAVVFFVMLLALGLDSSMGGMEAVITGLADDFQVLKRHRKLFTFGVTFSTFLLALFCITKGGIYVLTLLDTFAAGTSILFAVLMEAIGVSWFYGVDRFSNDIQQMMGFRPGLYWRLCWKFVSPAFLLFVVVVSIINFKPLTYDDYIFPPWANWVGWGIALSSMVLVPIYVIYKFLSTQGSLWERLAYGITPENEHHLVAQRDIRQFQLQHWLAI
# SERT = SERT (Homo sapiens, UniProt P31645); test: Off-target primary and secondary screen; format: binding; conditions: 10 mM sample
# Sigma 1 = Sigma 1 (Homo sapiens, UniProt Q99720); test: Off-target primary and secondary screen; format: binding; conditions: 10 mM sample
# Sigma 1, sequence (Q99720 whole entry): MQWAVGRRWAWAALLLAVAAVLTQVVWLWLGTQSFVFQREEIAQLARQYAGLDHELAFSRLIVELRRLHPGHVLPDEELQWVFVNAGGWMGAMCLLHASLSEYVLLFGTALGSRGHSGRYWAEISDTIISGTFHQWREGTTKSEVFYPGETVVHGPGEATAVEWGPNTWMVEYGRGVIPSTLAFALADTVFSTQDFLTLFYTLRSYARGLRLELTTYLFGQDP
# Sigma 2 = Sigma 2 (Homo sapiens, UniProt Q5BJF2); test: Off-target primary and secondary screen; format: binding; conditions: 10 mM sample
# Sigma 2, sequence (Q5BJF2 whole entry): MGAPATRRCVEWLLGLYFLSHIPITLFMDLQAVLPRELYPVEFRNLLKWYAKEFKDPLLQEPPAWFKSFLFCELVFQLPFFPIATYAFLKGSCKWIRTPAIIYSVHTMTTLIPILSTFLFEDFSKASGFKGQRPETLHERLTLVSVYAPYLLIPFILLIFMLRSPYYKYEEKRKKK
smiles,measurement,setting,value
"O=c1c2sc(Cl)cc2n2c(=S)[nH]nc2n1CC1CC1 [Compound 19, 7-Chloro-4-(cyclopropylmethyl)-1-thioxo-2,4-dihydrothieno[2,3-e][1,2,4]triazolo[4,3-a]pyrimidin-5 (1H)-one]",IC50,[1],1.4 ± 0.03 µM
same,Primary screen AVE (% inhib) ± SD,5-HT1A,-20.0 ± 27.4 % inhib
same,Primary screen AVE (% inhib) ± SD,5-HT1B,17.7 ± 42.2 % inhib
same,Primary screen AVE (% inhib) ± SD,5-HT2A,37.0 ± 10.4 % inhib
same,Primary screen AVE (% inhib) ± SD,5-HT2B,-17.7 ± 11.2 % inhib
same,Primary screen AVE (% inhib) ± SD,5-HT2C,-18.3 ± 22.0 % inhib
same,Primary screen AVE (% inhib) ± SD,5-HT3,-3.8 ± 3.1 % inhib
same,Primary screen AVE (% inhib) ± SD,5-HT5A,-1.4 ± 14.4 % inhib
same,Primary screen AVE (% inhib) ± SD,5-HT6,-5.0 ± 11.7 % inhib
same,Primary screen AVE (% inhib) ± SD,5-HT7A,-88.1 ± 20.8 % inhib
same,Primary screen AVE (% inhib) ± SD,Alpha1B,-7.7 ± 9.7 % inhib
same,Primary screen AVE (% inhib) ± SD,Aipha1D,-9.9 ± 23.4 % inhib
same,Primary screen AVE (% inhib) ± SD,Alpha2A,-6.3 ± 7.9 % inhib
same,Primary screen AVE (% inhib) ± SD,Alpha2B,-6.4 ± 7.1 % inhib
same,Primary screen AVE (% inhib) ± SD,Beta2,-2.1 ± 19.7 % inhib
same,Primary screen AVE (% inhib) ± SD,Beta3,17.9 ± 8.6 % inhib
same,Primary screen AVE (% inhib) ± SD,D1,-17.2 ± 25.0 % inhib
same,Primary screen AVE (% inhib) ± SD,D2,-27.4 ± 13.1 % inhib
same,Primary screen AVE (% inhib) ± SD,D3,-7.0 ± 21.7 % inhib
same,Primary screen AVE (% inhib) ± SD,D4,-24.3 ± 4.4 % inhib
same,Primary screen AVE (% inhib) ± SD,DAT,43.9 ± 13.0 % inhib
same,Primary screen AVE (% inhib) ± SD,H2,-27.4 ± 17.1 % inhib
same,Primary screen AVE (% inhib) ± SD,H3,-18.5 ± 3.8 % inhib
same,Primary screen AVE (% inhib) ± SD,H4,-4.5 ± 11.4 % inhib
same,Primary screen AVE (% inhib) ± SD,KOR,-0.3 ± 8.7 % inhib
same,Primary screen AVE (% inhib) ± SD,M1,39.3 ± 10.7 % inhib
same,Primary screen AVE (% inhib) ± SD,M2,21.1 ± 19.7 % inhib
same,Primary screen AVE (% inhib) ± SD,M3,7.5 ± 45.6 % inhib
same,Primary screen AVE (% inhib) ± SD,M4,-8.8 ± 4.8 % inhib
same,Primary screen AVE (% inhib) ± SD,M5,130.2 ± 3.0 % inhib
same,Primary screen AVE (% inhib) ± SD,MOR,30.8 ± 47.5 % inhib
same,Primary screen AVE (% inhib) ± SD,NET,-39.3 ± 20.6 % inhib
same,Primary screen AVE (% inhib) ± SD,SERT,-28.9 ± 28.7 % inhib
same,Primary screen AVE (% inhib) ± SD,Sigma 1,2.0 ± 21.4 % inhib
same,Primary screen AVE (% inhib) ± SD,Sigma 2,40.6 ± 9.5 % inhib
"Cn1cnc([N+](=O)[O-])c1Sc1nnc2n(CC3CC3)c(=O)c3sc(Cl)cc3n12 [Compound 20, 7-Chloro-4-(cyclopropylmethyl)-1-((1-methyl-4-nitro-1H-imidazol-5-yl)thio) thieno[2,3-e][1,2,4]triazolo[4,3-a]pyrimidin-5 (4H)-one]",IC50,[1],> 25 µM
same,Primary screen AVE (% inhib) ± SD,5-HT1A,-12.8 ± 19.7 % inhib
same,Primary screen AVE (% inhib) ± SD,5-HT1B,60.8 ± 40.9 % inhib
same,Ki,5-HT2A,9.2 µM
same,Primary screen AVE (% inhib) ± SD,5-HT2A,52.4 ± 11.8 % inhib
same,Primary screen AVE (% inhib) ± SD,5-HT2B,-0.5 ± 5.0 % inhib
same,Ki,5-HT2C,1.3 µM
same,Primary screen AVE (% inhib) ± SD,5-HT2C,59.5 ± 3.0 % inhib
same,Primary screen AVE (% inhib) ± SD,5-HT3,-0.8 ± 4.6 % inhib
same,Primary screen AVE (% inhib) ± SD,5-HT5A,24.5 ± 9.3 % inhib
same,Primary screen AVE (% inhib) ± SD,5-HT6,21.9 ± 15.6 % inhib
same,Primary screen AVE (% inhib) ± SD,5-HT7A,14.9 ± 9.9 % inhib
same,Primary screen AVE (% inhib) ± SD,Alpha1B,-1.6 ± 9.5 % inhib
same,Primary screen AVE (% inhib) ± SD,Aipha1D,-15.1 ± 19.8 % inhib
same,Primary screen AVE (% inhib) ± SD,Alpha2A,9.4 ± 4.6 % inhib
same,Primary screen AVE (% inhib) ± SD,Alpha2B,8.3 ± 16.4 % inhib
same,Primary screen AVE (% inhib) ± SD,Beta2,0.1 ± 10.6 % inhib
same,Primary screen AVE (% inhib) ± SD,Beta3,30.8 ± 22.8 % inhib
same,Primary screen AVE (% inhib) ± SD,D1,21.5 ± 6.8 % inhib
same,Primary screen AVE (% inhib) ± SD,D2,3.6 ± 6.6 % inhib
same,Primary screen AVE (% inhib) ± SD,D3,12.8 ± 12.8 % inhib
same,Primary screen AVE (% inhib) ± SD,D4,12.6 ± 4.9 % inhib
same,Primary screen AVE (% inhib) ± SD,DAT,54.0 ± 10.7 % inhib
same,Primary screen AVE (% inhib) ± SD,H2,-16.4 ± 21.5 % inhib
same,Primary screen AVE (% inhib) ± SD,H3,-12.5 ± 7.9 % inhib
same,Primary screen AVE (% inhib) ± SD,H4,8.2 ± 3.1 % inhib
same,Primary screen AVE (% inhib) ± SD,KOR,3.7 ± 4.1 % inhib
same,Primary screen AVE (% inhib) ± SD,M1,50.7 ± 26.1 % inhib
same,Primary screen AVE (% inhib) ± SD,M2,9.3 ± 19.3 % inhib
same,Primary screen AVE (% inhib) ± SD,M3,48.3 ± 21.9 % inhib
same,Primary screen AVE (% inhib) ± SD,M4,-8.7 ± 9.5 % inhib
same,Primary screen AVE (% inhib) ± SD,M5,95.0 ± 7.4 % inhib
same,Primary screen AVE (% inhib) ± SD,MOR,40.6 ± 51.0 % inhib
same,Primary screen AVE (% inhib) ± SD,NET,-56.8 ± 10.5 % inhib
same,Primary screen AVE (% inhib) ± SD,SERT,-56.0 ± 13.9 % inhib
same,Primary screen AVE (% inhib) ± SD,Sigma 1,41.8 ± 11.9 % inhib
same,Primary screen AVE (% inhib) ± SD,Sigma 2,40.7 ± 5.8 % inhib
